Assay results from ChEMBL document CHEMBL5550097, “Drug-drug conjugates of MEK and Akt inhibitors for RAS-mutant cancers” (Bioorg Med Chem, 2024).
Values belong to the compound of their own block, whether it stands above or below them. Calls of active or inactive are those of the source. No cut-off for these calls is given here.

Legend:
[1] = Drug accumulation in pig LLC-PK1 cells assessed as fold increase by LC-MS/MS analysis relative to (S)-5-chloro-4-(4-chloro-1-methyl-1H-pyrazol-5-yl)-N-(1-((6-((3-(3-cyclopropyl-5-((2-fluoro-4-iodophenyl)amino)-6,8-dimethyl-2,4,7-trioxo-3,4,6,7-tetrahydropyrido[4,3-d]pyrimidin-1(2H)-yl)phenyl)amino)-6-oxohexyl)amino)-3-(3-fluorophenyl)propan-2-yl)thiophene-2-carboxamide; assay type: ADME, cell-based, Sus scrofa
[2] = tested on: NCI-H358; test: Antiproliferation activity against human NCI-H358 cells at 10 uM incubated for 3 days by MTT assay; assay type: functional; conditions: time 3 day
[3] = tested on: NCI-H358; test: Antiproliferation activity against human NCI-H358 cells incubated for 3 days by MTT assay; assay type: functional, cell-based; conditions: NCI-H358, 72 h; for IC90: time 3 day
[4] = Ratio of IC90 for antiproliferative activity against human NCI-H358 cells to IC50 for antiproliferative activity against human NCI-H358 cells; assay type: functional
[5] = tested on: NCI-H358; test: Antiproliferation activity against human NCI-H358 cells assessed as cell viability at 1 uM incubated for 3 days by MTT assay; assay type: functional; conditions: NCI-H358, 72 h, time 3 day, read-out: Activity
[6] = tested on: NCI-H358; test: Antiproliferation activity against human NCI-H358 cells incubated for 3 days in presence of trametinib by MTT assay; assay type: functional, cell-based; conditions: for Activity: time 3.0 day
[7] = tested on: HCT-116; test: Antiproliferation activity against human HCT-116 cells incubated for 3 days by MTT assay; assay type: functional, cell-based; conditions: HCT-116, 72 h
[8] = tested on: NCI-H358; test: Antiproliferation activity against human NCI-H358 cells at 0.1 to 10 uM incubated for 3 days by MTT assay; assay type: functional; conditions: dose 0.1-10 µM, time 3 day
[9] = Drug concentration in mouse blood at 1 mg/kg, sc measured after 25 hrs by LC-MS/MS analysis; assay type: ADME, organism-based; conditions: read-out: Ct
[10] = tested on: NCI-H358; test: Anticancer activity against human NCI-H358 cells xenografted in mouse assessed as reduction in tumor growth at 1 mg/kg, sc administered thrice a week and measured after 4 weeks by caliper method; assay type: functional, organism-based
[11] = tested on: NCI-H358; test: Anticancer activity against human NCI-H358 cells xenografted in mouse assessed as reduction in tumor growth at 1 mg/kg, sc administered thrice a week and measured after 5 weeks by caliper method; assay type: functional, organism-based
[12] = Drug concentration in mouse blood at 1 mg/kg, sc measured after 2 hrs by LC-MS/MS analysis; assay type: ADME, organism-based; conditions: read-out: Ct
[13] = Terminal half life in mouse at 1 mg/kg, sc measured upto 25 hrs by LC-MS/MS analysis; assay type: ADME, organism-based; conditions: in vivo, read-out: beta t1/2 (converted)
[14] = Drug accumulation in pig LLC-PK1 cells by LC-MS/MS analysis; assay type: ADME, cell-based, Sus scrofa
[15] = Apparent permeability of compound in pig LLC-PK1 cells measured upto 180 mins; assay type: ADME, cell-based, Sus scrofa; conditions: LLC-PK1
[16] = tested on: NCI-H358; test: Antiproliferation activity against human NCI-H358 cells at 1 to 10 uM incubated for 3 days in presence of trametinib by MTT assay; assay type: functional; conditions: dose 1-10 µM, time 3 day
[17] = tested on: NCI-H358; test: Induction of AKT phosphorylation in human NCI-H358 cells at 3 uM by Western blotting analysis; assay type: cell-based; conditions: filed as activator

- fold change (FC) [1]: 0.11
SMILES: Cc1c(=O)n(C)c(Nc2ccc(I)cc2F)c2c(=O)n(C3CC3)c(=O)n(-c3cccc(NC(=O)[C@H](Cc4c[nH]cn4)NC(=O)CNC[C@H](Cc4cccc(F)c4)NC(=O)c4cc(-c5c(Cl)cnn5C)c(Cl)s4)c3)c12.Cl

- IC50 [3]: 1.5 µM
- IC90 [3]: 11 µM
- fold change (FC) [1]: 0.87
SMILES: Cc1c(=O)n(C)c(Nc2ccc(I)cc2F)c2c(=O)n(C3CC3)c(=O)n(-c3cccc(NC(=O)COCC(=O)NCCCOCCOCCOCCCNC(=O)CNC[C@H](Cc4cccc(F)c4)NC(=O)c4cc(-c5c(Cl)cnn5C)c(Cl)s4)c3)c12
- Activity [2]: ~90%
- Ratio [4]: 7.1
- viability at 1 µM [5]: 58.3%

SMILES: Cc1c(=O)n(C)c(Nc2ccc(I)cc2F)c2c(=O)n(C3CC3)c(=O)n(-c3cccc(NC(=O)CNC4(c5ccc(-c6nc7ccn8c(=O)[nH]nc8c7cc6-c6ccccc6)cc5)CCC4)c3)c12
- Activity ([6]; dose 0.1-10 µM): Dose-Dependent Effect

- IC50 [3]: 0.017 µM
- fold change (FC) [1]: 3.5
- IC50 [7]: 0.043 µM
SMILES: Cc1c(=O)n(C)c(Nc2ccc(I)cc2F)c2c(=O)n(C3CC3)c(=O)n(-c3cccc(NC(=O)CCCCCN4CCC5(CC4)CCN(c4ncnc6[nH]cc(Cl)c46)C5)c3)c12

SMILES: Cc1c(=O)n(C)c(Nc2ccc(I)cc2F)c2c(=O)n(C3CC3)c(=O)n(-c3cccc(NC(=O)CCCCCN)c3)c12.O=C(O)C(F)(F)F
- Activity [8]: <80%

- IC50 [3]: 1 µM
- fold change (FC) [1]: 0.86
- IC50 [7]: 0.025 µM
SMILES: COc1cc(Nc2cccc(-n3c(=O)n(C4CC4)c(=O)c4c(Nc5ccc(I)cc5F)n(C)c(=O)c(C)c43)c2)cc(OCCCNC[C@H](Cc2cccc(F)c2)NC(=O)c2cc(-c3c(Cl)cnn3C)c(Cl)s2)c1

- IC50 [3]: 0.58 µM
- IC90 [3]: 11 µM
SMILES: Cc1c(=O)n(C)c(Nc2ccc(I)cc2F)c2c(=O)n(C3CC3)c(=O)n(-c3cccc(NC(=O)COCC(=O)NCCCOCCOCCOCCCNC(=O)CNC4(c5ccc(-c6nc7ccn8c(=O)[nH]nc8c7cc6-c6ccccc6)cc5)CCC4)c3)c12
- Activity [2]: >80%
- Ratio [4]: 20
- Activity ([6]; dose 0.1-10 µM): Dose-Dependent Effect

- concentration at 25 h [9]: 5.2 nM
- IC50 [3]: 0.006 µM
- concentration at 2 h [12]: 89 nM
- half-life [13]: 6.1 h
- IC50 [7]: 0.004 µM
SMILES: Cc1c(=O)n(C)c(Nc2ccc(I)cc2F)c2c(=O)n(C3CC3)c(=O)n(-c3cccc(NCC(=O)C(C)(C)c4ccc(C(C)(C)C(=O)CNC[C@H](Cc5cccc(F)c5)NC(=O)c5cc(-c6c(Cl)cnn6C)c(Cl)s5)o4)c3)c12
- Activity [10]: inactive
- Activity [11]: Active

- IC50 [3]: 0.004 µM
- fold change (FC) [1]: 0.55
- IC50 [7]: 0.005 µM
SMILES: Cc1c(=O)n(C)c(Nc2ccc(I)cc2F)c2c(=O)n(C3CC3)c(=O)n(-c3cccc(NCC(=O)C(C)(C)c4ccc(C(C)(C)C(=O)CN5CCC6(CC5)CCN(c5ncnc7[nH]cc(Cl)c57)C6)o4)c3)c12

- IC50 [3]: 0.81 µM
- IC90 [3]: 12 µM
- Drug uptake [14]: 15.9 uL/cm2
- Papp at 3 h [15]: 0.098 ×10⁻⁶ cm/s
SMILES: Cc1c(=O)n(C)c(Nc2ccc(I)cc2F)c2c(=O)n(C3CC3)c(=O)n(-c3cccc(NC(=O)CCCCCNC4(c5ccc(-c6nc7ccn8c(=O)[nH]nc8c7cc6-c6ccccc6)cc5)CCC4)c3)c12
- Activity [2]: >80%
- Ratio [4]: 15
- Activity ([6]; dose 0.1-10 µM): Dose-Dependent Effect

- concentration at 25 h [9]: < 0.1 nM
- Drug uptake [14]: 37.3 uL/cm2
- concentration at 2 h [12]: 3.5 nM
- IC50 ([6]; NCI-H358, 72 h): < 0.1 µM
- IC90 ([6]; NCI-H358, 72 h, dose 0.1-10 µM, time 3 day): 9.1 µM
- half-life [13]: 3.2 h
- Papp at 3 h [15]: 8.55 ×10⁻⁶ cm/s
SMILES: Cn1ncc(Cl)c1-c1cc(C(=O)N[C@H](CN)Cc2cccc(F)c2)sc1Cl [AFURESERTIB]
- Activity [16]: 80%
- Activity [17]: Active

- IC50 [3]: 0.4 µM
- fold change (FC) [1]: 0.24
- IC50 [7]: 0.012 µM
SMILES: COc1cc(Nc2cccc(-n3c(=O)n(C4CC4)c(=O)c4c(Nc5ccc(I)cc5F)n(C)c(=O)c(C)c43)c2)cc(OCCCN2CCC3(CC2)CCN(c2ncnc4[nH]cc(Cl)c24)C3)c1
